Assay results: patent US20260022142A1, “MACROCYCLIC IMMUNOMODULATORS” (Bristol-Myers Squibb Company, priority 2022, published 2026)
Bridge positions count the residues as written; N and C are the ends. Square brackets hold non-standard residues; d marks the D form. Peptide text beside a SMILES is read from it. * marks the point of attachment. ξ: configuration not given here. Phe(3-CF3) = N[C@@H](Cc1cccc(C(F)(F)F)c1)C(=O)O; Phe(4-COOH) = N[C@@H](Cc1ccc(C(=O)O)cc1)C(=O)O; Tyr(3-Cl) = N[C@@H](Cc1ccc(O)c(Cl)c1)C(=O)O; Bip = N[C@@H](Cc1ccc(-c2ccccc2)cc1)C(=O)O; NH(CH2)14COOH = O=C(O)CCCCCCCCCCCCCCN*; Phe(3-Me) = Cc1cccc(C[C@H](N)C(=O)O)c1; Val(3-OH) = CC(C)(O)[C@H](N)C(=O)O; Cha = N[C@@H](CC1CCCCC1)C(=O)O; Cit = NC(=O)NCCC[C@H](N)C(=O)O; Thr(3ξ) = CC(O)[C@H](N)C(=O)O; hCys = N[C@@H](CCS)C(=O)O; Carboxymethyl = O=C(O)C*; Orn = NCCC[C@H](N)C(=O)O; Aun = NCCCCCCCCCCC(=O)O; Dab = NCC[C@H](N)C(=O)O; Abu = CC[C@H](N)C(=O)O; Dap = NC[C@H](N)C(=O)O; AEEA = NCCOCCOCC(=O)O

The compounds below were run against T1, PD-1/PD-L1 interaction (PE-labeled human PD-L1-Ig binding to Jurkat cell line over-expressing human PD-1) (Homo sapiens, UniProt Q15116) (assay: Jurkat-PD-1 Cell Binding High-Content Screening Assay (CBA)). Conditions: Jurkat cell line over-expressing human PD-1; PE-labeled PD-L1-Ig 20 nM final; read-out: Jurkat hPD1-PDL1 IC50.
T1 construct: expressed in transfected cells; host or cells: Jurkat
T1 sequence (Q15116 25-288): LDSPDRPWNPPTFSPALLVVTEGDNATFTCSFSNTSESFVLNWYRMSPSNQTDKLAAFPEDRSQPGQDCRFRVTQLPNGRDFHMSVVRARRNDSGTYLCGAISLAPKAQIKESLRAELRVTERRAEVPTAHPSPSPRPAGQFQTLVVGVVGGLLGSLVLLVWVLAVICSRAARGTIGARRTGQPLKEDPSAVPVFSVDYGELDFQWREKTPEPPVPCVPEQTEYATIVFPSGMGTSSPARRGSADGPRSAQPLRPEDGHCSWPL
Format: cell-based
How it was run: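 Jurkat-hPD-1 cells, DMEM/10% FCS; cpd 2 h 37° C; PE-PD-L1-Ig 20 nM final, 1 h; 4% PFA fix + Hoechst 33342, 3× dPBS wash; high-content imaging read-out.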

Row | Structure (SMILES) | IC50 [nM]
1 | CC(C)C[C@@H]1NC(=O)[C@H](Cc2c[nH]c3ccccc23)NC(=O)[C@H](CC(=O)O)NC(=O)[C@H](Cc2ccc(C(=O)O)cc2)NC(=O)[C@H](Cc2ccc(OCC(=O)O)cc2)NC(=O)CSC[C@@H](C(=O)NCCOCCOCC(=O)NCCCCCCCCCCC(=O)O)NC(=O)[C@H](CCCN)NC(=O)[C@H](C(C)C)NC(=O)[C@H](CC2CCCCC2)NC(=O)[C@H](CCN)NC(=O)[C@@H](CC(C)C)NC(=O)[C@H](CCCN)NC(=O)[C@H](Cc2ccc(O)cc2)NC(=O)[C@H](Cc2ccc(-c3ccccc3)cc2)NC1=O [Compound 1240] ({CH2CO}-Y(Carboxymethyl)[Phe(4-COOH)]DWL[Bip]Y[Orn][dL][Dab][Cha]V[Orn]C[AEEA][Aun]-OH; thioether N-14) | 20.6
2 | CC[C@@H]1NC(=O)CSC[C@@H](C(=O)N[C@@H](CCN)C(=O)NCCCCCCCCCCCCCCC(=O)O)NC(=O)[C@H](Cc2c[nH]cn2)NC(=O)[C@H](C(C)(C)O)NC(=O)[C@H](CC2CCCCC2)NC(=O)[C@H](CCN)NC(=O)[C@@H](CC(C)C)NC(=O)[C@H](CCCN)NC(=O)[C@H](Cc2ccc(C(=O)O)cc2)NC(=O)[C@H](Cc2ccc(-c3ccccc3)cc2)NC(=O)[C@H](Cc2ccc(C(=O)O)cc2)NC(=O)[C@H](Cc2cccc(C(F)(F)F)c2)NC(=O)[C@H](CC(=O)O)NC(=O)[C@H](Cc2ccc(OCC(=O)O)cc2)NC1=O [Compound 2929] ({CH2CO}-[Abu]Y(Carboxymethyl)D[Phe(3-CF3)][Phe(4-COOH)][Bip][Phe(4-COOH)][Orn][dL][Dab][Cha][Val(3-OH)]HC[Dab]-{NH(CH2)14COOH}; thioether N-14) | 369
3 | Cc1cccc(C[C@@H]2NC(=O)[C@H](CC(=O)O)NC(=O)[C@H](Cc3ccc(OCC(=O)O)cc3)NC(=O)[C@H](CN)NC(=O)CSC[C@@H](C(=O)N[C@@H](CCN)C(=O)NCCCCCCCCCCC(N)=O)NC(=O)[C@H]([C@@H](C)O)NC(=O)[C@H](C(C)C)NC(=O)[C@H](CC3CCCCC3)NC(=O)[C@H](CCN)NC(=O)[C@@H](CC(C)C)NC(=O)[C@H](CCCN)NC(=O)[C@H](CCCNC(=N)N)NC(=O)[C@H](Cc3ccc(-c4ccccc4)cc3)NC(=O)[C@H](C(C)C)NC2=O)c1 [Compound 2025] ({CH2CO}-[Dap]Y(Carboxymethyl)D[Phe(3-Me)]V[Bip]R[Orn][dL][Dab][Cha]VTC[Dab][Aun]-NH2; thioether N-14) | 20.5
4 | Cc1cccc(C[C@@H]2NC(=O)[C@H](CC(=O)O)NC(=O)[C@H](Cc3ccc(OCC(=O)O)cc3)NC(=O)[C@H](CN)NC(=O)CSCC[C@@H](C(=O)N[C@@H](C)C(=O)N[C@@H](CCC(=O)O)C(=O)NCCCCCCCCCCC(=O)O)NC(=O)[C@H]([C@@H](C)O)NC(=O)[C@H](C(C)C)NC(=O)[C@H](CC3CCCCC3)NC(=O)[C@H](CCN)NC(=O)[C@@H](CC(C)C)NC(=O)[C@H](CCCN)NC(=O)[C@H](CCCNC(N)=O)NC(=O)[C@H](Cc3ccc(-c4ccccc4)cc3)NC(=O)[C@H](C(C)C)NC2=O)c1 [Compound 2781] ({CH2CO}-[Dap]Y(Carboxymethyl)D[Phe(3-Me)]V[Bip][Cit][Orn][dL][Dab][Cha]VT[hCys]AE[Aun]-OH; thioether N-14) | 74.3
5 | Cc1cccc(C[C@@H]2NC(=O)[C@H](CC(=O)O)NC(=O)[C@H](Cc3ccc(OCC(=O)O)cc3)NC(=O)[C@H](Cc3ccc(OCC(=O)O)cc3)NC(=O)CSC[C@@H](C(=O)NCC(=O)N[C@@H](CCCN)C(=O)NCC(=O)NCCCCCCCCCCC(=O)O)NC(=O)[C@H](CO)NC(=O)[C@H](C(C)C)NC(=O)[C@H](CC3CCCCC3)NC(=O)[C@H](CCN)NC(=O)[C@@H](CC(C)C)NC(=O)[C@H](CCCN)NC(=O)[C@H](C(C)C)NC(=O)[C@H](Cc3ccc(-c4ccccc4)cc3)NC(=O)[C@H](CC(C)C)NC2=O)c1 [Compound 1067] ({CH2CO}-Y(Carboxymethyl)Y(Carboxymethyl)D[Phe(3-Me)]L[Bip]V[Orn][dL][Dab][Cha]VSCG[Orn]G[Aun]-OH; thioether N-14) | 28.5

Stronger by IC50, values ahead:

Row | IC50 [nM] | Structure (SMILES)
6 | 13.6 | Cc1cccc(C[C@@H]2NC(=O)[C@H](CC(=O)O)NC(=O)[C@H](Cc3ccc(OCC(=O)O)cc3)NC(=O)[C@H](CN)NC(=O)CSC[C@@H](C(=O)N[C@@H](CCCCN)C(=O)NCCCCCCCCCCC(=O)O)NC(=O)[C@H](C(C)O)NC(=O)[C@H](C(C)C)NC(=O)[C@H](CC3CCCCC3)NC(=O)[C@H](CCN)NC(=O)[C@@H](CC(C)C)NC(=O)[C@H](CCCN)NC(=O)[C@H](Cc3ccc(O)cc3)NC(=O)[C@H](Cc3ccc(-c4ccccc4)cc3)NC(=O)[C@H](C(C)C)NC2=O)c1 (stereo partly drawn) [Compound 2589] ({CH2CO}-[Dap]Y(Carboxymethyl)D[Phe(3-Me)]V[Bip]Y[Orn][dL][Dab][Cha]V[Thr(3ξ)]CK[Aun]-OH; thioether N-14)
7 | 13.6 | Cc1cccc(C[C@@H]2NC(=O)[C@H](CC(=O)O)NC(=O)[C@H](Cc3ccc(OCC(=O)O)cc3)NC(=O)[C@H](C(C)O)NC(=O)CSC[C@@H](C(=O)N[C@H](CC(N)=O)C(=O)NCCCCCCCCCCC(=O)O)NC(=O)[C@H](C(C)O)NC(=O)[C@H](C(C)C)NC(=O)[C@H](CC3CCCCC3)NC(=O)[C@H](CCN)NC(=O)[C@@H](CC(C)C)NC(=O)[C@H](CCCN)NC(=O)[C@H](CCCNC(N)=O)NC(=O)[C@H](Cc3ccc(-c4ccccc4)cc3)NC(=O)[C@H](C(C)C)NC2=O)c1 (stereo partly drawn) [Compound 3444] ({CH2CO}-[Thr(3ξ)]Y(Carboxymethyl)D[Phe(3-Me)]V[Bip][Cit][Orn][dL][Dab][Cha]V[Thr(3ξ)]C[dN][Aun]-OH; thioether N-14)
8 | 6.9 | Cc1cccc(C[C@@H]2NC(=O)[C@H](CC(=O)O)NC(=O)[C@H](Cc3ccc(OCC(=O)O)cc3)NC(=O)[C@H](C(C)O)NC(=O)CSC[C@@H](C(=O)NCCOCCOCC(=O)NCCCCCCCCCCC(=O)O)NC(=O)[C@H](CCC(N)=O)NC(=O)[C@H](C(C)C)NC(=O)[C@H](CC3CCCCC3)NC(=O)[C@H](CCN)NC(=O)[C@@H](CC(C)C)NC(=O)[C@H](CCN)NC(=O)[C@H](Cc3ccc(O)cc3)NC(=O)[C@H](Cc3ccc(-c4ccccc4)cc3)NC(=O)[C@H](C(C)C)NC2=O)c1 (stereo partly drawn) [Compound 3394] ({CH2CO}-[Thr(3ξ)]Y(Carboxymethyl)D[Phe(3-Me)]V[Bip]Y[Dab][dL][Dab][Cha]VQC[AEEA][Aun]-OH; thioether N-14)
9 | 8 | Cc1cccc(C[C@@H]2NC(=O)[C@H](CC(=O)O)NC(=O)[C@H](Cc3ccc(OCC(=O)O)cc3)NC(=O)[C@H](CN)NC(=O)CSC[C@@H](C(=O)N[C@@H](CCN)C(=O)NCCOCCOCC(=O)NCCCCCCCCCCC(=O)O)NC(=O)[C@H](CCCN)NC(=O)[C@H](C(C)C)NC(=O)[C@H](CC3CCCCC3)NC(=O)[C@H](CCN)NC(=O)[C@@H](CC(C)C)NC(=O)[C@H](CCCN)NC(=O)[C@H](Cc3ccc(O)c(Cl)c3)NC(=O)[C@H](Cc3ccc(-c4ccccc4)cc3)NC(=O)[C@H](Cc3ccc(O)cc3)NC2=O)c1 [Compound 2057] ({CH2CO}-[Dap]Y(Carboxymethyl)D[Phe(3-Me)]Y[Bip][Tyr(3-Cl)][Orn][dL][Dab][Cha]V[Orn]C[Dab][AEEA][Aun]-OH; thioether N-14)
